In US20250151723A1, “FUNGICIDAL COMBINATION, COMPOSITION, AND USE THEREOF” (UPL MAURITIUS LIMITED, priority 2023, published 2025):
Where two headings read alike, the source gives them in different places.

How the values were obtained:
[1] = tested on: Alternaria solani in tomato (early blight disease); assay: Greenhouse efficacy on tomato early blight, lesion area at 4 dpi (Examples 1-3); assay type: in vivo
[2] = tested on: Soybean Target Spot (Corynespora cassicola); assay: Greenhouse trial on potted soybean plants, target spot (Example 8); assay type: in vivo
Botrytis = assay: Greenhouse trial on potted plants, Botrytis in pepper (Example 7)
Procedure: (§1) Following trials were conducted on crops (potted plants) infected with the pathogen/disease in a greenhouse trial.

Target Spot = assay: Greenhouse trial on potted plants, target spot in soybean (Example 7)
Procedure: as §1

cucumber downy mildew [3] = assay: Greenhouse efficacy on cucumber downy mildew (Example 4); assay type: in vivo
[4] = tested on: tomato late blight disease; assay type: in vivo
[5] = tested on: tomato early blight disease; assay: Greenhouse efficacy on tomato early blight disease (Example 6); assay type: in vivo
cucumber downy mildew [6] = assay: Greenhouse efficacy on cucumber downy mildew (Example 9); assay type: in vivo
[7] = tested on: tomato early blight disease; assay: Greenhouse trial on potted tomato plants, early blight (Example 10); assay type: in vivo
Early Blight = conditions: Tomato
Procedure: as §1

[8] = 17.5 g/L, 700 g Cu/HA (standard)
[9] = 0.75 g/L, 30 g Cu/HA (standard)

Compound: O=C(O)c1ccccc1O [Salicylic acid]
- Observed efficacy % ([1]; Table 1, 20 g/HA of SA): 13.3%
- Observed efficacy % ([1]; Table 2, 40 mg/L, 2.5 g SA/HA): 23.4%
- Observed efficacy % ([1]; Table 2, 80 mg/L, 5 g SA/HA): 22.1%
- Observed efficacy % ([1]; Table 2, 320 mg/L, 10 g/HA): −2.3%
- Observed efficacy % ([1]; Table 2, 320 mg/L, 20 g/HA): −2.7%

Compound: O=C1C2CC=CCC2C(=O)N1SC(Cl)(Cl)Cl (stereo not shown) [captan]
- Efficacy (%) ([2]; 0.02 g/L, 1.56 g Captan/ha): 0.4%
- Efficacy (%) ([2]; 6 g/L, 467 g Captan/ha (full recommended dose)): 100%
- Efficacy (%) (Botrytis; 0.002 g/l, 0.16 gai/ha): 20.4%

Compound: O=C1c2ccccc2C(=O)N1SC(Cl)(Cl)Cl [folpet]
- Efficacy (%) ([2]; 0.015 g/L, 0.63 g Folpet/ha): 34.7%
- Efficacy (%) ([2]; 5 g/L, 208.5 g Folpet/ha (full recommended dose)): 98.4%
- Efficacy (%) (Botrytis; 0.002 ml/l, 0.1 gai/ha): 9.3%
- Efficacy (%) (Target Spot; 0.015 g/l, 0.625 gai/ha): 34.7%

Compound: O=C([O-])c1ccccc1O.[K+] [potassium salicylate]
- Observed efficacy % ([1]; Table 3, 410 mg/L): 5.8%
- Observed efficacy (cucumber downy mildew [3]; 71 mg/L, 0.89 g SA/HA): 21.9
- Observed efficacy % ([4]; 137 mg/L, 1.7 g SA/HA): 15.2%
- Observed efficacy % ([5]; 310 mg/L, 3.875 g SA/HA): 2.2%
- Observed efficacy % ([5]; 410 mg/L, 5.125 g SA/HA): 13.1%
- Observed efficacy % ([5]; 620 mg/L, 7.75 g/HA): 11.4%
- Efficacy (%) ([2]; 25 mg/L, 0.31 g KSA/ha): 19.5%
- Efficacy (%) ([2]; 100 mg/L, 1.25 g KSA/ha): 12.4%
- Efficacy (%) ([2]; 410 mg/L, 5.13 g KSA/ha): 1.8%
- Efficacy (%) ([2]; 820 mg/L, 10.27 g KSA/ha): −6.1%
- Efficacy (%) ([2]; 1.64 g/L, 20.54 g KSA/ha): −11.4%
- Observed efficacy % (cucumber downy mildew [6]; 103 mg/L, 1.29 g KSA/HA): 14.0%
- Observed efficacy % (cucumber downy mildew [6]; 137 mg/L, 1.71 g KSA/HA): −1.1%
- Observed efficacy % (cucumber downy mildew [6]; 207 mg/L, 2.59 g KSA/HA): −2.7%
- Observed efficacy % ([7]; 0.1 g/L, 1.25 gai/ha): 0.4%
- Observed efficacy % ([7]; 0.41 g/L, 5.13 gai/ha): 2.3%
- Observed efficacy % ([7]; 0.82 g/L, 10.25 gai/ha): 37.4%
- Observed efficacy % ([7]; 1.64 g/L, 20.5 gai/ha): 34.4%
- Efficacy (%) (Early Blight; 0.41 g/l, 5.13 gai/ha): −3%
- Efficacy (%) (Botrytis; 0.025 g/l, 0.31 gai/ha (mancozeb and captan sections)): −5.2%
- Efficacy (%) (Botrytis; 0.1 g/l, 1.25 gai/ha (mancozeb and captan sections)): −3.9%
- Efficacy (%) (Botrytis; folpet section, 0.1 g/l, 1.25 gai/ha): 12%
- Efficacy (%) (Target Spot; captan and folpet sections, 0.025 g/l, 0.31 gai/ha): 19.5%
- Efficacy (%) (Target Spot; captan and folpet sections, 0.1 g/l, 1.25 gai/ha): 12.4%
- Efficacy (%) (Target Spot; captan and folpet sections, 0.41 g/l, 5.13 gai/ha): 1.8%
- Efficacy (%) (Target Spot; captan and folpet sections, 0.82 g/l, 10.25 gai/ha): −6.1%
- Efficacy (%) (Target Spot; captan and folpet sections, 1.64 g/l, 20.5 gai/ha): −11.4%
- Efficacy (%) (Target Spot; mancozeb section, 0.025 g/l, 0.31 gai/ha): 16.8%
- Efficacy (%) (Target Spot; mancozeb section, 0.1 g/l, 1.25 gai/ha): 12.6%
- Efficacy (%) (Target Spot; mancozeb section, 0.41 g/l, 5.13 gai/ha): 27.6%
- Efficacy (%) (Target Spot; mancozeb section, 0.82 g/l, 10.25 gai/ha): −3.8%
- Efficacy (%) (Target Spot; mancozeb section, 1.64 g/l, 20.5 gai/ha): 6.3%

Compound: O=S(=O)([O-])[O-].[Cu+2].[Cu+2].[Cu+2].[Cu+2].[OH-].[OH-].[OH-].[OH-].[OH-].[OH-] [tribasic copper sulphate]
- Observed efficacy % ([1]; Table 1, 150 g/HA of Cu): 31%
- Observed efficacy % ([1]; Table 1, 700 g/HA of Cu (standard treatment)): 88%
- Observed efficacy % ([1]; Table 2, 0.75 g/L, 150 g Cu/HA): 40.2%
- Observed efficacy % ([1]; Table 2, 17.5 g/L, 700 g Cu/HA (standard)): 86.9%
- Observed efficacy % ([1]; Table 3, 0.75 g/L): 23%
- Observed efficacy % ([1]; Table 3, 17.5 g/L (standard)): 75%
- Observed efficacy (cucumber downy mildew [3]; 0.13 g/L, 5.2 g Cu/HA): −7.6
- Observed efficacy (cucumber downy mildew [3]; [8]): 94.9
- Observed efficacy % ([4]; 0.25 g/L, 10 g Cu/HA): 18.5%
- Observed efficacy % [4, 9]: 62.9%
- Observed efficacy % ([5]; 0.75 g/L, 30 g Cu/HA): 18.5%
- Observed efficacy % [5, 8]: 57.6%
- Observed efficacy % (cucumber downy mildew [6]; 0.25 g/L, 10 g Cu/HA): 50.7%
- Observed efficacy % (cucumber downy mildew [6]; [9]): 96.7%

Compound: mancozeb
- Efficacy (%) (Early Blight; 0.0187 g/l, 1.4 gai/ha): −12.6%
- Efficacy (%) (Botrytis; 0.0168 g/l, 1.26 gai/ha): 26.4%
- Efficacy (%) (Target Spot; 0.0075 g/l, 0.56 gai/ha): −6.6%
